Target: PI3Kδ (p110δ/p85α) (Homo sapiens (Human), UniProt O00329)
Assay: Example A3 PI3Kδ scintillation proximity assay
Assay type: biochemical
Conditions: comparison of compounds 355-358; assay not given
Procedure: PI3Kδ Scintillation Proximity Assay
[γ-^33P]ATP (10 mCi/mL) was purchased from PerkinElmer (Waltham, Mass.). […] PI3Kδ (p110δ/p85α) was purchased from Millipore (Bedford, Mass.). ATP, MgCl2, DTT, EDTA, MOPS and CHAPS were purchased from SigmaAldrich (St. Louis, Mo.). Wheat Germ Agglutinin (WGA) YSi SPA Scintillation Beads was purchased from GE healthcare life sciences (Piscataway, N.J.).
The final concentration of DMSO in the assay was 0.5%. The PI3K assays were carried out at room temperature in 20 mM MOPS, pH 6.7, 10 mM MgCl2, 5 mM DTT and CHAPS 0.03%. Reactions were initiated by the addition of ATP, the final reaction mixture consisted of 20 μM PIP2, 20 μM ATP, 0.2 μCi [γ-^33P]

PI3Kδ (p110δ/p85α), sequence (O00329 whole entry): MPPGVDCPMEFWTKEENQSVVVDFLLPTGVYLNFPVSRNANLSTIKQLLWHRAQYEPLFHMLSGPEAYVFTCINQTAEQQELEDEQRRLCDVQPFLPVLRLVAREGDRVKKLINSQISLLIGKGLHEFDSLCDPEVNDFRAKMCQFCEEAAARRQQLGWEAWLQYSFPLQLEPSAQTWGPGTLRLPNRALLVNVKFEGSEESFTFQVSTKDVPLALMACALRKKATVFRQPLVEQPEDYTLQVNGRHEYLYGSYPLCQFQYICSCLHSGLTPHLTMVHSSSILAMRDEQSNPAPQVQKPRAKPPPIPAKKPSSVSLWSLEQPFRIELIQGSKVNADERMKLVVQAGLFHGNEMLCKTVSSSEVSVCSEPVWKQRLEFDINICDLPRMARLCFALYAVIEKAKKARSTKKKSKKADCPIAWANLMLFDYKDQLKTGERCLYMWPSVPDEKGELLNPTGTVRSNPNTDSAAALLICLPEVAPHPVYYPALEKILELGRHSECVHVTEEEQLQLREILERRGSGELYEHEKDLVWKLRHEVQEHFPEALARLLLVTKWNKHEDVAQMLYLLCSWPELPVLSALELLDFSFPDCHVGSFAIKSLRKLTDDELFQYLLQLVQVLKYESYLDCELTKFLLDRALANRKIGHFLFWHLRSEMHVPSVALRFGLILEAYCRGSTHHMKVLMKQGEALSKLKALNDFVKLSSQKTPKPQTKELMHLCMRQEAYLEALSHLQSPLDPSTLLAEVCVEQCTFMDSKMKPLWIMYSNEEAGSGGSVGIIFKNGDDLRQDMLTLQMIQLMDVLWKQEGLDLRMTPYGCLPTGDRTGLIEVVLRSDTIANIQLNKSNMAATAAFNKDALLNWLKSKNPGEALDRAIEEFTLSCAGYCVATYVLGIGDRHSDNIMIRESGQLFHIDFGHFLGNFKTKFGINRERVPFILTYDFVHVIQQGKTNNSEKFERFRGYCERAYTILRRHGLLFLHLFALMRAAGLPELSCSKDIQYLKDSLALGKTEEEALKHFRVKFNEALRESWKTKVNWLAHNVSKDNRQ
PI3Kδ (p110δ/p85α), sequence (P27986 whole entry partner): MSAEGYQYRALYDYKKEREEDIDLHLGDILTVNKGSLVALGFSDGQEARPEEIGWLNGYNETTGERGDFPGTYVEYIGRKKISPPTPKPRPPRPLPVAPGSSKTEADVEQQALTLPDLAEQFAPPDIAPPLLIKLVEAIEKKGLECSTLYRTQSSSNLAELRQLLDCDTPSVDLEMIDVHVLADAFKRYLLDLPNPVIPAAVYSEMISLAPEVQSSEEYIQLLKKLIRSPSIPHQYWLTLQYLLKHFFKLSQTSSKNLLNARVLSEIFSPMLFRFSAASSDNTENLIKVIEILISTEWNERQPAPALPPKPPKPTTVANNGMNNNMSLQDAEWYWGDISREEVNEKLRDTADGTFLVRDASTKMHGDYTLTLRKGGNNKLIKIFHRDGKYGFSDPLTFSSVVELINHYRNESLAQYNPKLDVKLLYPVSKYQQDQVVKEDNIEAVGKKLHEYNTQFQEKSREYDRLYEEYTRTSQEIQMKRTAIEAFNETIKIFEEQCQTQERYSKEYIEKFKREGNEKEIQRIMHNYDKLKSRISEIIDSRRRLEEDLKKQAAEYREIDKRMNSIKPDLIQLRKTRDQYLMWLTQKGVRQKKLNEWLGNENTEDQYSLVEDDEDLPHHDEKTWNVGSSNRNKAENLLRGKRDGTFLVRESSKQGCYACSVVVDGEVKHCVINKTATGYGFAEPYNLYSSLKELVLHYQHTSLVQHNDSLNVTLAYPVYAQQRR

With `CCOc1c(C(C)n2nc(C)c3c(N)ncnc32)cc(Cl)c(F)c1C1CNC(=O)O1` (single isomer, unassigned) [Example 357, 5-{3-[1-(4-amino-3-methyl-1H-pyrazolo[3,4-d]pyrimidin-1-yl)ethyl]-5-chloro-2-ethoxy-6-fluorophenyl}-1,3-oxazolidin-2-one] the “relative activity of the separated enantiomers (peaks 1-4)” value was “most active enantiomer”.

From patent US9730939B2, “Heterocyclylamines as PI3K inhibitors” (Incyte Corporation, priority 2011, dated 2017)
